Measurements from PubChem BioAssay (NCI).
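Briefly, cells in 96-well plates were exposed to five compound concentrations for 48 h, and endpoints were estimated by linear interpolation. The concentration for full growth arrest is given as TGI.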

Key:
Test in all cases: growth of human tumour cells (NCI), 48 h
786-0 renal = system: 786-0 renal
A498 renal = system: A498 renal
A549 NSCLC = system: A549 NSCLC
ACHN renal = system: ACHN renal
BT-549 breast = system: BT-549 breast
CAKI-1 renal = system: CAKI-1 renal
CCRF-CEM leukemia = system: CCRF-CEM leukemia
COLO 205 colon = system: COLO 205 colon
DU-145 prostate = system: DU-145 prostate
EKVX NSCLC = system: EKVX NSCLC
HCC-2998 colon = system: HCC-2998 colon
HCT-116 colon = system: HCT-116 colon
HCT-15 colon = system: HCT-15 colon
HOP-62 NSCLC = system: HOP-62 NSCLC
HOP-92 NSCLC = system: HOP-92 NSCLC
HS 578T breast = system: HS 578T breast
HT29 colon = system: HT29 colon
IGROV1 ovarian = system: IGROV1 ovarian
K-562 leukemia = system: K-562 leukemia
KM12 colon = system: KM12 colon
M14 melanoma = system: M14 melanoma
MALME-3M melanoma = system: MALME-3M melanoma
MCF7 breast = system: MCF7 breast
MDA-MB-231 breast = system: MDA-MB-231 breast
MDA-MB-435 = system: MDA-MB-435
MOLT-4 leukemia = system: MOLT-4 leukemia
NCI-H226 lung = system: NCI-H226 lung
NCI-H23 lung = system: NCI-H23 lung
NCI-H460 lung = system: NCI-H460 lung
NCI/ADR-RES ovarian = system: NCI/ADR-RES ovarian
OVCAR-3 ovarian = system: OVCAR-3 ovarian
OVCAR-4 ovarian = system: OVCAR-4 ovarian
OVCAR-5 ovarian = system: OVCAR-5 ovarian
OVCAR-8 ovarian = system: OVCAR-8 ovarian
PC-3 prostate = system: PC-3 prostate
RPMI-8226 leukemia = system: RPMI-8226 leukemia
RXF 393 renal = system: RXF 393 renal
SF-268 CNS = system: SF-268 CNS
SF-295 CNS = system: SF-295 CNS
SK-MEL-2 melanoma = system: SK-MEL-2 melanoma
SK-MEL-28 melanoma = system: SK-MEL-28 melanoma
SK-MEL-5 melanoma = system: SK-MEL-5 melanoma
SK-OV-3 ovarian = system: SK-OV-3 ovarian
SN12C renal = system: SN12C renal
SNB-19 CNS = system: SNB-19 CNS
SNB-75 CNS = system: SNB-75 CNS
SR leukemia = system: SR leukemia
SW-620 colon = system: SW-620 colon
T-47D breast = system: T-47D breast
TK-10 renal = system: TK-10 renal
U251 CNS = system: U251 CNS
UACC-257 melanoma = system: UACC-257 melanoma
UACC-62 melanoma = system: UACC-62 melanoma
UO-31 renal = system: UO-31 renal
HL-60(TB) leukemia = system: HL-60(TB) leukemia
LOX IMVI melanoma = system: LOX IMVI melanoma
NCI-H522 lung = system: NCI-H522 lung
SF-539 CNS = system: SF-539 CNS

SMILES: COc1ccc2[nH]c(C(O)(Cc3cccnc3)Cc3cccnc3)cc2c1
- TGI (786-0 renal): > 100 µM
- TGI (A498 renal): > 100 µM
- TGI (A549 NSCLC): > 100 µM
- TGI (ACHN renal): > 100 µM
- TGI (BT-549 breast): > 100 µM
- TGI (CAKI-1 renal): > 100 µM
- TGI (CCRF-CEM leukemia): > 100 µM
- TGI (COLO 205 colon): > 100 µM
- TGI (DU-145 prostate): > 100 µM
- TGI (EKVX NSCLC): > 100 µM
- TGI (HCC-2998 colon): > 100 µM
- TGI (HCT-116 colon): > 100 µM
- TGI (HCT-15 colon): > 100 µM
- TGI (HOP-62 NSCLC): > 100 µM
- TGI (HOP-92 NSCLC): > 100 µM
- TGI (HS 578T breast): > 100 µM
- TGI (HT29 colon): > 100 µM
- TGI (IGROV1 ovarian): > 100 µM
- TGI (K-562 leukemia): > 100 µM
- TGI (KM12 colon): > 100 µM
- TGI (M14 melanoma): > 100 µM
- TGI (MALME-3M melanoma): > 100 µM
- TGI (MCF7 breast): > 100 µM
- TGI (MDA-MB-231 breast): > 100 µM
- TGI (MDA-MB-435): > 100 µM
- TGI (MOLT-4 leukemia): > 100 µM
- TGI (NCI-H226 lung): > 100 µM
- TGI (NCI-H23 lung): > 100 µM
- TGI (NCI-H460 lung): > 100 µM
- TGI (NCI/ADR-RES ovarian): > 100 µM
- TGI (OVCAR-3 ovarian): > 100 µM
- TGI (OVCAR-4 ovarian): > 100 µM
- TGI (OVCAR-5 ovarian): > 100 µM
- TGI (OVCAR-8 ovarian): > 100 µM
- TGI (PC-3 prostate): > 100 µM
- TGI (RPMI-8226 leukemia): > 100 µM
- TGI (RXF 393 renal): > 100 µM
- TGI (SF-268 CNS): > 100 µM
- TGI (SF-295 CNS): > 100 µM
- TGI (SK-MEL-2 melanoma): > 100 µM
- TGI (SK-MEL-28 melanoma): > 100 µM
- TGI (SK-MEL-5 melanoma): > 100 µM
- TGI (SK-OV-3 ovarian): > 100 µM
- TGI (SN12C renal): > 100 µM
- TGI (SNB-19 CNS): > 100 µM
- TGI (SNB-75 CNS): > 100 µM
- TGI (SR leukemia): > 100 µM
- TGI (SW-620 colon): > 100 µM
- TGI (T-47D breast): > 100 µM
- TGI (TK-10 renal): > 100 µM
- TGI (U251 CNS): > 100 µM
- TGI (UACC-257 melanoma): > 100 µM
- TGI (UACC-62 melanoma): > 100 µM
- TGI (UO-31 renal): > 100 µM

SMILES: O=C(CC(Cl)(Cl)C(Cl)(Cl)Cl)c1ccccc1
- TGI (786-0 renal): 11.4 µM
- TGI (A498 renal): 34.6 µM
- TGI (A549 NSCLC): 39.1 µM
- TGI (ACHN renal): 5.29 µM
- TGI (BT-549 breast): 39.9 µM
- TGI (CAKI-1 renal): 4.39 µM
- TGI (COLO 205 colon): 13.2 µM
- TGI (DU-145 prostate): 15.1 µM
- TGI (HCT-116 colon): 4.91 µM
- TGI (HCT-15 colon): 4.56 µM
- TGI (HL-60(TB) leukemia): 29.9 µM
- TGI (HOP-62 NSCLC): 16.4 µM
- TGI (HOP-92 NSCLC): 59.5 µM
- TGI (HS 578T breast): 56.2 µM
- TGI (HT29 colon): 4.72 µM
- TGI (IGROV1 ovarian): 18.3 µM
- TGI (K-562 leukemia): 4.57 µM
- TGI (KM12 colon): 14.8 µM
- TGI (LOX IMVI melanoma): 3.74 µM
- TGI (M14 melanoma): 7.4 µM
- TGI (MALME-3M melanoma): 8.91 µM
- TGI (MCF7 breast): 23.6 µM
- TGI (MDA-MB-231 breast): 5.48 µM
- TGI (MDA-MB-435): 5.34 µM
- TGI (MOLT-4 leukemia): 5.02 µM
- TGI (NCI-H226 lung): 16.2 µM
- TGI (NCI-H23 lung): 20.5 µM
- TGI (NCI-H460 lung): 32.5 µM
- TGI (NCI-H522 lung): 7.3 µM
- TGI (NCI/ADR-RES ovarian): 43.9 µM
- TGI (OVCAR-3 ovarian): 4.33 µM
- TGI (OVCAR-4 ovarian): 5.67 µM
- TGI (OVCAR-5 ovarian): 25.8 µM
- TGI (OVCAR-8 ovarian): 8.53 µM
- TGI (PC-3 prostate): 29.1 µM
- TGI (RPMI-8226 leukemia): 6.09 µM
- TGI (RXF 393 renal): 4.25 µM
- TGI (SF-268 CNS): 55.4 µM
- TGI (SF-295 CNS): 19.4 µM
- TGI (SF-539 CNS): 31.3 µM
- TGI (SK-MEL-2 melanoma): 32.3 µM
- TGI (SK-MEL-28 melanoma): 5.3 µM
- TGI (SK-MEL-5 melanoma): 24.3 µM
- TGI (SK-OV-3 ovarian): 38.2 µM
- TGI (SN12C renal): 3.09 µM
- TGI (SNB-19 CNS): 39.2 µM
- TGI (SNB-75 CNS): 29.3 µM
- TGI (SR leukemia): 4.37 µM
- TGI (SW-620 colon): 12.2 µM
- TGI (T-47D breast): 7.08 µM
- TGI (TK-10 renal): 18.4 µM
- TGI (U251 CNS): 18.3 µM
- TGI (UACC-257 melanoma): 3.81 µM
- TGI (UACC-62 melanoma): 6.56 µM
- TGI (UO-31 renal): 14.5 µM

SMILES: CCC(CN(C)C)C(=O)c1ccco1 (stereo unspecified)
- TGI (786-0 renal): > 100 µM
- TGI (A498 renal): > 100 µM
- TGI (A549 NSCLC): > 100 µM
- TGI (ACHN renal): > 100 µM
- TGI (BT-549 breast): > 100 µM
- TGI (CAKI-1 renal): > 100 µM
- TGI (DU-145 prostate): > 100 µM
- TGI (EKVX NSCLC): > 100 µM
- TGI (HCC-2998 colon): > 100 µM
- TGI (HCT-116 colon): > 100 µM
- TGI (HCT-15 colon): > 100 µM
- TGI (HOP-62 NSCLC): > 100 µM
- TGI (HOP-92 NSCLC): > 100 µM
- TGI (HS 578T breast): > 100 µM
- TGI (HT29 colon): > 100 µM
- TGI (IGROV1 ovarian): > 100 µM
- TGI (K-562 leukemia): > 100 µM
- TGI (KM12 colon): > 100 µM
- TGI (LOX IMVI melanoma): > 100 µM
- TGI (M14 melanoma): > 100 µM
- TGI (MALME-3M melanoma): > 100 µM
- TGI (MCF7 breast): > 100 µM
- TGI (MDA-MB-231 breast): > 100 µM
- TGI (MDA-MB-435): > 100 µM
- TGI (MOLT-4 leukemia): 96.8 µM
- TGI (NCI-H23 lung): > 100 µM
- TGI (NCI-H460 lung): > 100 µM
- TGI (NCI-H522 lung): 35.6 µM
- TGI (NCI/ADR-RES ovarian): > 100 µM
- TGI (OVCAR-3 ovarian): > 100 µM
- TGI (OVCAR-4 ovarian): > 100 µM
- TGI (OVCAR-5 ovarian): > 100 µM
- TGI (OVCAR-8 ovarian): > 100 µM
- TGI (PC-3 prostate): > 100 µM
- TGI (RPMI-8226 leukemia): > 100 µM
- TGI (RXF 393 renal): > 100 µM
- TGI (SF-268 CNS): > 100 µM
- TGI (SF-295 CNS): > 100 µM
- TGI (SK-MEL-2 melanoma): > 100 µM
- TGI (SK-MEL-28 melanoma): > 100 µM
- TGI (SK-OV-3 ovarian): > 100 µM
- TGI (SN12C renal): > 100 µM
- TGI (SNB-19 CNS): > 100 µM
- TGI (SNB-75 CNS): > 100 µM
- TGI (SR leukemia): > 100 µM
- TGI (SW-620 colon): > 100 µM
- TGI (T-47D breast): > 100 µM
- TGI (TK-10 renal): > 100 µM
- TGI (U251 CNS): > 100 µM
- TGI (UACC-257 melanoma): > 100 µM
- TGI (UACC-62 melanoma): > 100 µM
- TGI (UO-31 renal): > 100 µM
